This note sets out measurements from EPA's ToxValDB 9.5 (doi:10.2903/j.efsa.2010.1872).

The structures appear in SMILES notation. Converted amounts (≈) assume the structure as drawn.

Data set [1] has as its system Typhlodromus pyri. In words: LR50; higher = less toxic. The note with it: not reported; mortality.
In data set [2] the test system is Daphnia magna. The note with it: chronic/long-term; duration: 21 days.
In data set [3] the test system is Typhlodromus pyri. The note with it: chronic/long-term; mortality.
The test system of data set [4] is Bibionidae. The note with it: chronic/long-term; duration: 28 days; development.
Data set [5] has as its system Folsomia candida. Particulars: chronic/long-term; duration: 28 days; mortality.
The test system of data set [6] is Apis mellifera. Particulars: acute; oral; unspecified; mortality.
The test system of data set [7] is Anas platyrhynchos. The note with it: oral, mortality.
The subject of data set [8] is Rattus norvegicus.
Data set [9] relates to Tagia sp. The note with it: acute, duration: 14 days.
Data set [10] relates to Colinus virginianus.
Data set [11] relates to Pimephales promelas.
Where [12] appears, read: reproduction developmental, reproduction.

In general, NOAEL refers to the highest tested level that showed no adverse finding. `CC1(C)[C@H](C(=O)O[C@H](C#N)c2cccc(Oc3ccccc3)c2)[C@@H]1/C=C\C(=O)OC(C(F)(F)F)C(F)(F)F` [Acrinathrin] had an LR50 in data set [1] of 0.006 g/ha. In addition, the NOEC in data set [2] is 3.2e-06 mg/L; in [3] it was 0.00068 g/ha; in data set [4], 3.1e-05 mg/L; in [5] it was below 1 mg/kg; in [7] (short-term, feed), 173 mg/kg-day; in data set [9], 1.6 mg/kg. For the same compound, the NOEC in data set [10] (setting [12]) stood at 19.9 mg/kg-day; in [10] (short-term, oral, diet, mortality) it was 325 mg/kg-day; in data set [11] (chronic/long-term, duration: 21 days), 1.1e-05 mg/L. For the same compound, the LD50 is 0.077 µg/piece in [6]; above 2000 mg/kg-day in data set [7] (acute, unspecified); above 5000 mg/kg-day in data set [8] (acute, oral, mortality); above 2250 mg/kg-day in data set [10] (acute, oral, mortality). Moreover, the no-observed-adverse-effect level (NOAEL) in [8] (acute, neurology) worked out at 1 mg/kg-day; in [8] (setting [12]) it was 9.4 mg/kg-day. The same compound had an NOEL in [8] (setting [12]) of 2.5 mg/kg-day. Moreover, the LC50 was above 1000 mg/kg in data set [9] (mortality) and 1.7 ng/mL (≈ 3.14 nM) in [11] (acute, duration: 96 hours, mortality).
